Literature values as cited in patent US20260042735A1, “BENZYLTRYPTAMINE COMPOUNDS” (priority 2021, published 2026).

Key:
[1] = target: human 5-HT2A receptor (Homo sapiens (Human), UniProt P28223); conditions: cited from earlier work
[2] = target: T1, 5HT2B receptor (Homo sapiens, UniProt P41595); conditions: cited from earlier work
[3] = target: 5HT2C receptor (Homo sapiens, UniProt P28335); conditions: cited from earlier work
[4] = target: T1, 5HT2B receptor; conditions: cited from earlier work; remark: listed apart in the source
[5] = test system: mouse OCD model; conditions: cited from earlier work
[6] = test system: mouse head twitch; conditions: much lower potency relative to psilocin; cited from earlier work
[7] = target: SERT (Homo sapiens (Human), UniProt P31645); conditions: cited from earlier work
[8] = target: 5-HT1B (Homo sapiens (Human), UniProt P28222); conditions: cited from earlier work
Sequence of 5-HT1B (P28222 whole entry, looked up, species assumed): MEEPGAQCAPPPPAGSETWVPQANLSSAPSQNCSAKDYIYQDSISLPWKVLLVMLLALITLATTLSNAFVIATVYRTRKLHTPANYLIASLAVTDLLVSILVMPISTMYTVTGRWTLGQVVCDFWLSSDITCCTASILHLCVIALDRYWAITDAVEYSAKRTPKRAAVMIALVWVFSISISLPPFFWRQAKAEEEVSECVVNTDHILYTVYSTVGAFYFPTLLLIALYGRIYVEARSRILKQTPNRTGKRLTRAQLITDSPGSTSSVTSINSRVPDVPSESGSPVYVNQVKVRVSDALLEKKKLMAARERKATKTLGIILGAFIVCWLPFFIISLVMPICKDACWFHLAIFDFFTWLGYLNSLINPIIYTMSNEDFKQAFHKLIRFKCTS

[9] = target: 5-HT1D (Homo sapiens (Human), UniProt P28221); conditions: cited from earlier work
Sequence of 5-HT1D (P28221 whole entry, looked up, species assumed): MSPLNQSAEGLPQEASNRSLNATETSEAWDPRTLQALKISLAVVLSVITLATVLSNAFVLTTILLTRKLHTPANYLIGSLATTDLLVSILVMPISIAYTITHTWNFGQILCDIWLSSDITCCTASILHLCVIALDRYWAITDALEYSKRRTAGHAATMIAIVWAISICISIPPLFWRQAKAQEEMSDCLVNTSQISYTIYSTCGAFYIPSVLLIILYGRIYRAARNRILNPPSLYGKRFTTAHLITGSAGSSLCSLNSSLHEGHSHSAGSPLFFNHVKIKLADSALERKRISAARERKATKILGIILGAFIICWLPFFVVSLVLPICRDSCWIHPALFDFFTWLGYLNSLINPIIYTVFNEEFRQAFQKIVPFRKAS

[10] = target: 5-HT3 (Homo sapiens (Human), UniProt P46098); conditions: read-out: Ki 5-HT3; cited from earlier work
Sequence of 5-HT3 (P46098 whole entry, looked up, species assumed): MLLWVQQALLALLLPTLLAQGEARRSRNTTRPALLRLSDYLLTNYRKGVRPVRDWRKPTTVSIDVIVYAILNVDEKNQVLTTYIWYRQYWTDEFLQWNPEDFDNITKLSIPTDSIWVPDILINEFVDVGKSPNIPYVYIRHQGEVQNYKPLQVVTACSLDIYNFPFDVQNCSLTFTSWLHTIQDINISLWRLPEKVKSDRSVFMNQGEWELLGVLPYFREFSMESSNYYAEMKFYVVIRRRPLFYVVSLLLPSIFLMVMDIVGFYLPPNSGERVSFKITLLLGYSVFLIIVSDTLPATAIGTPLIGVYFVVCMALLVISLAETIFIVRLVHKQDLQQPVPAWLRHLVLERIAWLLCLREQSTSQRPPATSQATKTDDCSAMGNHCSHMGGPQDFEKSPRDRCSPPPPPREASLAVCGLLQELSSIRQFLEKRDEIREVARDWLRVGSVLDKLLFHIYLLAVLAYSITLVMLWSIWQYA

[11] = target: 5-HT5 (Homo sapiens (Human), UniProt P47898); conditions: cited from earlier work
Sequence of 5-HT5 (P47898 whole entry, looked up, species assumed): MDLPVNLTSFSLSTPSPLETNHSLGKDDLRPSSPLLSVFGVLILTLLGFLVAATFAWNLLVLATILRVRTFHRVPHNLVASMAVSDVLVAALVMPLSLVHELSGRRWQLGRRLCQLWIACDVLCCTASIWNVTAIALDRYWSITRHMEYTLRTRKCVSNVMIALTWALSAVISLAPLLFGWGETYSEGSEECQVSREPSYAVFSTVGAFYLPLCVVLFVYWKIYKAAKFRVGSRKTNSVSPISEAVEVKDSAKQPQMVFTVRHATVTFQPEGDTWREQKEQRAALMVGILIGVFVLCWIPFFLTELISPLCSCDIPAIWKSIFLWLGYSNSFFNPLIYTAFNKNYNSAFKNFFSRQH

[12] = target: 5-HT6 (Homo sapiens (Human), UniProt P50406); conditions: cited from earlier work
Sequence of 5-HT6 (P50406 whole entry, looked up, species assumed): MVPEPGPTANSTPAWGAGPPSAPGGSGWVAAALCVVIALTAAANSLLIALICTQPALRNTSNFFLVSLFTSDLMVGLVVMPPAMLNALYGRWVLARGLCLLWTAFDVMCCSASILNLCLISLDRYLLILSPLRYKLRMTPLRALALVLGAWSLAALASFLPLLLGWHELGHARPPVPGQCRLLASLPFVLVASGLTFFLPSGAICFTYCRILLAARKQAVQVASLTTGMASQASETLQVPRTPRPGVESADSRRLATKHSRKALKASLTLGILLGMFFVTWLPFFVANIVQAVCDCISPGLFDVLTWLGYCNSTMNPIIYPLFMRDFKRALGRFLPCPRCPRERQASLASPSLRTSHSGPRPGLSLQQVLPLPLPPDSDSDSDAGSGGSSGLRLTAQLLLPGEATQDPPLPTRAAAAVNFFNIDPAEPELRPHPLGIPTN

[13] = target: 5-HT7 (Homo sapiens (Human), UniProt P34969); conditions: cited from earlier work
Sequence of 5-HT7 (P34969 whole entry, looked up, species assumed): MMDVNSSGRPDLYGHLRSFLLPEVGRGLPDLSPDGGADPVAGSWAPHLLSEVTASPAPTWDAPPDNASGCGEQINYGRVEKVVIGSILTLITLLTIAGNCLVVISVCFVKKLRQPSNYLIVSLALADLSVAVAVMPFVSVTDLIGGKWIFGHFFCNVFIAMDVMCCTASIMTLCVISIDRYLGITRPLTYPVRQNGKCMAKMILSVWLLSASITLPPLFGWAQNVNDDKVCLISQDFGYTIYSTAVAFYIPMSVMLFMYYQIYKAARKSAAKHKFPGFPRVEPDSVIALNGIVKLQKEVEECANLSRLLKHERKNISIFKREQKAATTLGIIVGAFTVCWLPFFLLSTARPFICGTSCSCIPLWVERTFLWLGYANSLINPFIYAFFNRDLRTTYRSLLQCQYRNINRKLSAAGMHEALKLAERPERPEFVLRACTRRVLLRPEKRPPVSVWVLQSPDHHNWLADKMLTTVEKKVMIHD

[14] = test system: dopamine receptors; conditions: cited from earlier work

Sequence of 5HT2C receptor (P28335 33-458 limits assumed): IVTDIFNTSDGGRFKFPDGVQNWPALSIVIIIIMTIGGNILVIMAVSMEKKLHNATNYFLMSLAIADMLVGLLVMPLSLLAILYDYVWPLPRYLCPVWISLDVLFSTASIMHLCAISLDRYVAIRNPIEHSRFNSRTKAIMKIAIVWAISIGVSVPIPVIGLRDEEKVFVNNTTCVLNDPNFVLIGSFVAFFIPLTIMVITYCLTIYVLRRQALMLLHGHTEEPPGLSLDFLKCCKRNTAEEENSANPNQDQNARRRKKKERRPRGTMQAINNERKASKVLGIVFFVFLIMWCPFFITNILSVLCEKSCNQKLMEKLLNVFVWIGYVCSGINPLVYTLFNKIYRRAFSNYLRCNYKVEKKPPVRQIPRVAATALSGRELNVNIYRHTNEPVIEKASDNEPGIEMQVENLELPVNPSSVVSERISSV
T1 sequence (P41595 whole entry, looked up): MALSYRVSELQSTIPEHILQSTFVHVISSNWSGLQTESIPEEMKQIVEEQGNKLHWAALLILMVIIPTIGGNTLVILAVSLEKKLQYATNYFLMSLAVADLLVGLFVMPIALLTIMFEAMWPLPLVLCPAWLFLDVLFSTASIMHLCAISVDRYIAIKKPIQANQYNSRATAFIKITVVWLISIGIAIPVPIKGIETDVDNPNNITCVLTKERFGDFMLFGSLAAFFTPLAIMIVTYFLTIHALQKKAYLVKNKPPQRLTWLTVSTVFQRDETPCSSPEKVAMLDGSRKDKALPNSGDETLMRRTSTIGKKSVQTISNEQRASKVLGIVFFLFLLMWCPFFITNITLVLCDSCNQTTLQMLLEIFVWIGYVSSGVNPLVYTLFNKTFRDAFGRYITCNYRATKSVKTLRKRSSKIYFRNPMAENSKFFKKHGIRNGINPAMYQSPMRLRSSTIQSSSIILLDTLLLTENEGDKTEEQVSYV

Compound: CN(C)CCc1cn(C)c2cccc(O)c12 [compound 1]
- Functional efficacy response vs serotonin, 5-HT2A [1]: ca. 30%
- EC50 ([1]; phosphoinositol hydrolysis, read-out: Agonist potency at human 5-HT2A receptor): 633 nM
- Agonist activity at 5-HT2B receptors [2]: inactive
- EC50 ([3]; phosphoinositol hydrolysis, read-out: Agonist potency at human 5-HT2C receptor): 12 nM
- Functional efficacy response vs serotonin, 5-HT2C ([3]; serotonin set at 100%): ca. 45%
- Antagonist potency at 5-HT2B receptors [4]: 38 nM
- Efficacy in mouse OCD model [5]: efficacy in a mouse OCD model demonstrated
- Efficacy in mouse head twitch assay [6]: efficacious

Compound: CN(C)CCc1c[nH]c2cccc(O)c12 [Psilocin, psilocin]
- Ki [7]: 3800 nM
- Ki [8]: 219 nM
- Ki [9]: 36 nM
- Ki [10]: > 10000 nM
- Ki [11]: 84 nM
- Ki [12]: 57 nM
- Ki [13]: 3.5 nM
- Effect on dopamine receptors [14]: no significant effect
